These results are taken from paper PMC5318888, “SAMHD1 enhances nucleoside-analogue efficacy against HIV-1 in myeloid cells” (Scientific Reports, 2017).

Series [1] concerns the target T1, SAMHD1 (Homo sapiens, UniProt Q9Y3Z3).
T1 construct: The final concentrations were 100 nM SAMHD1(115–626), 10 nM Ppx1; strep-tag; made in house
Also on record: method as in PMID 25331707. The conditions noted are these: previous in vitro assays; cited from earlier work.

Series [2] relates to HIV-1-GFP. Kind of series: microbe, parasite or virus in culture. The format is cell-based. The procedure:
Cells were then infected with HIV-1-GFP by spinoculation at 800 × g for 90 min in the presence of 1 μg/mL polybrene, and further incubated at 37 °C in 5% CO2 for 72 h. […] Cells were then infected with HIV-1-GFP by spinoculation at 800 × g for 90 min in the presence of 1 μg/mL polybrene, and further incubated at 37 °C in 5% CO2 for 72 h. Non-dividing U937 and THP-1 (PMA^+) cells (6 × 10^5 cells/mL) were differentiated by addition of 100 nM PMA (PMA^+) for 48 h and treated with increasing concentrations of nucleoside analogues as described above. Cells were then infected with HIV-1-GFP in the presence of 1 μg/mL polybrene and further incubated at 37 °C in 5% CO2 for 72 h. The percentage of GFP^+cells was determined by one-colour flow cytometry using a Fortessa X20 analyser (BD Biosciences) and the data analysed using the FlowJo software suite.
(§1) Non-ambiguous values were subjected to a replicate test to calculate confidence intervals of 95% (95% CI). CC50 and EC50 values were determined for at least two independent experiments for each nucleoside analogue and a selectivity index (SI) also calculated, (SI = CC50/EC50). EC50 values for each replicate were used to perform an unpaired two-tailed t-test to determine significant differences between U937 cells expressing SAMHD1 wt or HD206-7AA mutant and THP-1 cells expressing Vpx or untransduced cells. P values of <0.005 were considered statistically significant.

Series [3] deals with HIV-1-GFP. Nature of the series: microbe, parasite or virus in culture. The format is cell-based. How it is done: H9 and Jurkat cells (6 × 10^5 cells/mL) were treated with increasing concentrations of nucleoside analogues (0–200 μM; except CFB, 0–1.6 μM) and incubated for 4 h at 37 °C in 5% CO2. Cells were then infected with HIV-1-GFP by spinoculation at 800 × g for 90 min in the presence of 1 μg/mL polybrene, and further incubated at 37 °C in 5% CO2 for 72 h. Undifferentiated U937 and THP-1 (PMA^−) cells (6 × 10^5 cells/mL) were treated with increasing concentrations of nucleoside analogues (0–200 μM; except CFB, 0–1.6 μM) and incubated at 37 °C in 5% CO2 for 48 h. Cells were then infected with HIV-1-GFP by spinoculation at 800 × g for 90 min in the presence of 1 μg/mL polybrene, and further incubated at 37 °C in 5% CO2 for 72 h. Non-dividing U937 and THP-1 (PMA^+) cells (6 × 10^5 cells/mL) were differentiated by addition of 100 nM PMA (PMA^+) for 48 h and treated with increasing concentrations of nucleoside analogues as described above. Cells were then infected with HIV-1-GFP in the presence of 1 μg/mL polybrene and further incubated at 37 °C in 5% CO2 for 72 h. The percentage of GFP^+cells was determined by one-colour flow cytometry using a Fortessa X20 analyser (BD Biosciences) and the data analysed using the FlowJo software suite.
as §1
The source holds these as a separate data set.

The test system of series [4] is HIV-1-GFP. Nature of the series: Anti-HIV-1 activity in U937 cells transduced with wt SAMHD1 or HD206-7AA mutant. Format: cell-based. The procedure:
(§2) Antiviral assays were further performed in monocytoid cells transduced with YFP-expressing VLPs containing WT SAMHD1, HD206-7AA or Vpx. Briefly, U937 cells (6 × 10^5 cells/mL) were transduced with WT SAMHD1-YFP or HD206-7AA-YFP VLPs by spinoculation at 800 × g for 90 min in the presence of 1 μg/mL polybrene. Similarly, THP-1 cells (6 × 10^5 cells/mL) were transduced with Vpx-YFP VLPs by spinoculation at 800 × g for 90 min in the presence of 1 μg/mL polybrene. Cells were incubated at 37 °C in 5% CO2 and after 72 h, PMA^+ cells (6 × 10^5 cells/mL) were treated with 100 nM PMA and PMA^− cells (7.5 × 10^4 cells/mL) were left untreated. Cells were then incubated at 37 °C in 5% CO2 for 48 h. Nucleoside analogues were added at increasing concentrations (0–200 μM; except CFB, 0–1.6 μM) and cells were further incubated for 48 h. PMA^− cells were then infected with HIV-1-GFP by spinoculation at 800 × g for 90 min in the presence of 1 μg/mL polybrene, PMA^+ cells were infected with HIV-1-GFP in the presence of 1 μg/mL polybrene only. Cells were incubated for 72 h at 37 °C in 5% CO2 and then analysed by two-colour flow cytometry using a Fortessa X20 analyser (BD Biosciences). Data were analysed using the FlowJo software suite.
as §1, with “The cytotoxic concentration of nucleoside analogue that inhibits cell viability by 50% (CC50) and the effective concentration of nucleoside analogue that inhibits infection of cells by 50% (EC50) were calculated for each independent experiment by non-linear regression using GraphPad Prism v6.00 for Windows (GraphPad Software, San Diego, CA). Non-ambiguous” for “Non-ambiguous”

Series [5] deals with HIV-1-GFP. Nature of the series: Anti-HIV-1 activity in THP-1 cells with or without Vpx transduction. Format: cell-based. The procedure: as §2
as §1, with “The cytotoxic concentration of nucleoside analogue that inhibits cell viability by 50% (CC50) and the effective concentration of nucleoside analogue that inhibits infection of cells by 50% (EC50) were calculated for each independent experiment by non-linear regression using GraphPad Prism v6.00 for Windows (GraphPad Software, San Diego, CA). Non-ambiguous” for “Non-ambiguous”

Series [6] in a line: Cytotoxicity, live cells by flow cytometry, H9 cells. Format: cell-based. To be noted: human. The procedure: (§3) H9, Jurkat and undifferentiated U937 and THP-1 (PMA^−) cells (6 × 10^5 cells/mL) were treated with increasing concentrations of nucleoside analogues (0–200 μM; except CFB, 0–1.6 μM) and incubated at 37 °C in 5% CO2 for 48 h. Medium was then replaced and cells were further incubated for 72 h. Non-dividing U937 and THP-1 (PMA^+) cells (6 × 10^5 cells/mL) were differentiated by addition of 100 nM phorbol-12-myristate-13-acetate (PMA^+) for 48 h and then treated with increasing concentrations of nucleoside analogues as described above. The percentage of live cells was determined by flow cytometry using Live/Dead fixable blue-fluorescent dyes (Invitrogen) and a Fortessa X20 analyser (BD Biosciences). Data were analysed using the FlowJo software suite.
as §1, with “The cytotoxic concentration of nucleoside analogue that inhibits cell viability by 50% (CC50) and the effective concentration of nucleoside analogue that inhibits infection of cells by 50% (EC50) were calculated for each independent experiment by non-linear regression using GraphPad Prism v6.00 for Windows (GraphPad Software, San Diego, CA). Non-ambiguous” for “Non-ambiguous”
Background: In flow cytometry, cells or beads pass a laser one at a time.

The nature of series [7]: Cytotoxicity, live cells by flow cytometry, Jurkat cells. Format: cell-based. The conditions noted are these: human. The procedure: as §3
as §1, with “The cytotoxic concentration of nucleoside analogue that inhibits cell viability by 50% (CC50) and the effective concentration of nucleoside analogue that inhibits infection of cells by 50% (EC50) were calculated for each independent experiment by non-linear regression using GraphPad Prism v6.00 for Windows (GraphPad Software, San Diego, CA). Non-ambiguous” for “Non-ambiguous”

Some results are limits rather than exact numbers.

T1 sequence (Q9Y3Z3 115-626): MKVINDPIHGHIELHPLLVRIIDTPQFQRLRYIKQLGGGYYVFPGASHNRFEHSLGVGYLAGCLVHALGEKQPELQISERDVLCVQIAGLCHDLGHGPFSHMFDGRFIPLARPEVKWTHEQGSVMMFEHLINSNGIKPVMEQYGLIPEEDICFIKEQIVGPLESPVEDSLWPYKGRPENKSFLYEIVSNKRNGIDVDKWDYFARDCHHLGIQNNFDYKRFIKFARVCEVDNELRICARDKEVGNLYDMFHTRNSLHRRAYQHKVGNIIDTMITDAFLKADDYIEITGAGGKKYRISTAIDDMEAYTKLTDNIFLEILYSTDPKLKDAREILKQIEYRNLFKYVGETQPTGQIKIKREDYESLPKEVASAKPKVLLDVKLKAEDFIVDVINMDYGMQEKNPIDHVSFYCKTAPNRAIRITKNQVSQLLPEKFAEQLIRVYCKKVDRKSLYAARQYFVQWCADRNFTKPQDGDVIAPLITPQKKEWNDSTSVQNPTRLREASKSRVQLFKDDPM

Regarding `Nc1nc(O)c2ncn(COC(CO)COP(=O)(O)OP(=O)(O)OP(=O)(O)O)c2n1` (stereo not shown) [GCV-TP, Ganciclovir triphosphate], in series [1], the “allosteric activation of SAMHD1” value is “displayed no activation of SAMHD1” and the “hydrolysis by SAMHD1 (substrate)” value is recorded as “non-hydrolysable”.
Take `Nc1nc(Cl)nc2c1ncn2[C@@H]1O[C@H](COP(=O)(O)OP(=O)(O)OP(=O)(O)O)[C@@H](O)[C@@H]1F` [CFB-TP, Clofarabine triphosphate]: the “hydrolysis by SAMHD1 (substrate)” value in series [1] is listed as “substrate hydrolysed by SAMHD1 at a rate comparable to natural dNTP substrates”.
`Nc1nc(Cl)nc2c1ncn2[C@@H]1O[C@H](CO)[C@@H](O)[C@@H]1F` [CFB, 2-chloro-9-(2′-Deoxy-2′-fluoro-beta-D-arabinofuranosyl)adenine]: the “SI, selectivity index CC50/EC50” value is below 1 in series [2] (H9 cells); below 1 in series [2] (Jurkat cells); above 533 in series [3] (THP-1 PMA+); below 1 in series [3] (THP-1 PMA−); above 43 in series [3] (U937 PMA+); below 1 in series [3] (U937 PMA−). The EC50 in series [2] (Human immunodeficiency virus 1, H9, read-out: EC50 anti-HIV-1, H9 cells) amounted to 94 nM; in series [2] (Human immunodeficiency virus 1, Jurkat, read-out: EC50 anti-HIV-1, Jurkat cells), 663 nM; in series [3] (Human immunodeficiency virus 1, THP-1, read-out: EC50 [95% CI], THP1 PMA+) it was 3 nM; in series [3] (Human immunodeficiency virus 1, THP-1, read-out: EC50 [95% CI], THP1 PMA−) it was 132 nM; in series [3] (Human immunodeficiency virus 1, U-937, read-out: EC50 [95% CI], U937 PMA+), 37 nM; in series [3] (Human immunodeficiency virus 1, U-937, read-out: EC50 [95% CI], U937 PMA−) it was 119 nM. In addition, the EC50 in series [4] (Human immunodeficiency virus 1, U-937, read-out: EC50 [95% CI], U937 PMA+, HD206/7AA+ population) is 29 nM; in series [4] (Human immunodeficiency virus 1, U-937, read-out: EC50 [95% CI], U937 PMA+, SAMHD1+ population) it was 1.3 nM; in series [4] (Human immunodeficiency virus 1, U-937, read-out: EC50 [95% CI], U937 PMA−, HD206/7AA+ population) it was 108 nM; in series [4] (Human immunodeficiency virus 1, U-937, read-out: EC50 [95% CI], U937 PMA−, SAMHD1+ population), 138 nM; in series [5] (Human immunodeficiency virus 1, THP-1, read-out: EC50 [95% CI], THP1 PMA+, Vpx+), 12 nM; in series [5] (Human immunodeficiency virus 1, THP-1, read-out: EC50 [95% CI], THP1 PMA+, Vpx−) it was 3 nM. In addition, the EC50 in series [5] (Human immunodeficiency virus 1, THP-1, read-out: EC50 [95% CI], THP1 PMA−, Vpx+) is above 1600 nM; in series [5] (Human immunodeficiency virus 1, THP-1, read-out: EC50 [95% CI], THP1 PMA−, Vpx−), 340 nM. In addition, the “fold increase of anti-HIV-1 activity in PMA+ over PMA− cells” value in series [3] (THP-1) came to 44 fold; in series [3] (U937), 3 fold. Further, the “Fold (EC50 HD206/7AA vs SAMHD1)” value in series [4] (U937 PMA+) came out at 22 fold; in series [4] (U937 PMA−), 1 fold. For the same compound, the “Fold (EC50 Vpx+ vs Vpx−)” value in series [5] (THP1 PMA+) was 4 fold; in series [5] (THP1 PMA−) it was above 5 fold. In addition, the values for the CC50 at 48 h in series [6] and in series [7] were 31 nM and 49 nM, respectively.
